Results as given in patent US11230526B1, “Cylcoalkenyl derivatives useful as agonists of the GPR120 and/or GPR40 receptors” (Janssen Pharmaceutica NV, priority 2018, dated 2022).
pEC50: −log10 of the molar value.

Legend:
[1] = tested on: C57B16 mice on a high fat diet; test: GPR120 DIO mice OGTT screening; assay type: in vivo, mouse; conditions: DIO mice (60% HFD), glucose AUC −30 to 90 min, % change from vehicle
Experimental: GPR120 DIO Mice OGTT Screening
18-22 week old, C57B16 mice on a high fat diet (60% HFD) for 12-16 weeks (ave. body weight ˜ 37-41 g) were fasted for 6 hr, with removal of food occurring at 7 am on the morning of the study. The animals were sorted into treatment groups the day before the study by body weight. Animals outside the bounds of ˜30-50 g were left out of the study. The animals had been handled and shammed a total of 5-8 days (1-3 days immediately prior to the study). Glucose (in 1 mL syringes) was drawn up the morning of the study. Test compounds were kept spinning and were only drawn into 1 ml syringes prior to study commencement. Animals were bled via tail snip to determine basal glucose levels prior to dosing of treatments. An Ascensia BREEZE Blood Glucose Monitoring System by Bayer was used for determining glucose levels.
Animals were moved into the testing room at ˜9-11 am, to yield them time to acclimate. The bleeds and dosing started at approximately 1 pm in 30-second intervals per animal. All groups were dosed 30 minutes prior to glucose administration at a dose volume of 10 ml/kg (the dose volume was calculated separately for each individual animal). Test compounds were administered at one or more of the following dosages: 0.1 mg/kg, 0.3 mg/kg, 1 mg/kg, 3 mg/kg and 10 mg/kg.
Thirty minutes after the first dose (with test compound) animals were bled again for a second baseline, or T=0, and immediately dosed with glucose (20% solution, TEKNOVA, 250 ml sterile bottle w/catalogue number G0525) via a PO injection. The exact dose volume for glucose was also calculated separately for each individual animal.
Blood glucose was measured at 15, 30, 45, 60, and 90 minutes post-glucose administration via the snipped tail. If an animal reached a value of “HI”, the upper limit of the glucometer (600 mg/dl) was substituted as the blood glucose value and the study was analyzed as normal with no exclusions. If 50% or more of any treatment group reaches a “HI” value at least once, the study was considered invalid and repeated. Glucose values were typed into an EXCEL spreadsheet where they were used to calculate glucose AUC and delta AUC post-compound and post-glucose. The glucose excursion curves and the different versions of the AUC's were graphed in GraphPad Prism 5.
Note: All statistics completed in this study were completed using the statistical software package GraphPad Prism 5. Standard procedures for analyzing data sets from screening GPR120 compounds in DIO mouse OGTT's were as listed here below. In addition to the statistics that were run using GraphPad Prism 5, Microsoft Excel was used to calculate the percent changes in AUC from vehicle groups as detailed below.
Change from −30 to 0 Baseline Glucose, Raw Glucose AUC −30 to 90 min, Delta Glucose AUC −30 to 90 min, Raw Glucose AUC 0 to 90 min, Delta Glucose AUC 0 to 90 min were analyzed using Column Statistics Analysis, with mean values used to calculate % change from the vehicle mean group, as well as mean, SEM and/or % change from vehicle, where appropriate, and using One-Way ANOVA w/a Tukey Post-Test (Comparing All Pairs of Columns) with each treatment group examined to see if it was statistically significant compared to vehicle (*=P<0.05, **=P<0.01, ***=P<0.001).

[2] = target: T1, long form of human GPR120 (Homo sapiens, UniProt Q5NUL3); test: Human GPR120 DiscoveRx PathHunter Beta-Arrestin assay, Procedure β-arrestin A; assay type: cell-based
T1 construct: host or cells: PathHunter CHO-K1 GPR120 β-Arrestin Cell Line
How it was run: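 PathHunter CHO-K1 cells expressing long-form human GPR120 (3000/well) were seeded overnight. They were then preincubated 60 min in HBSS with 20 mM HEPES and 0.1% BSA, pH 7.4, and exposed to compound for 90 min at 37 °C. β-Arrestin recruitment was read as β-gal complementation luminescence. EC50 came from % activity versus positive control, Hill slope fixed at 1.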

T1 sequence (Q5NUL3 1-377 isoform Q5NUL3-1): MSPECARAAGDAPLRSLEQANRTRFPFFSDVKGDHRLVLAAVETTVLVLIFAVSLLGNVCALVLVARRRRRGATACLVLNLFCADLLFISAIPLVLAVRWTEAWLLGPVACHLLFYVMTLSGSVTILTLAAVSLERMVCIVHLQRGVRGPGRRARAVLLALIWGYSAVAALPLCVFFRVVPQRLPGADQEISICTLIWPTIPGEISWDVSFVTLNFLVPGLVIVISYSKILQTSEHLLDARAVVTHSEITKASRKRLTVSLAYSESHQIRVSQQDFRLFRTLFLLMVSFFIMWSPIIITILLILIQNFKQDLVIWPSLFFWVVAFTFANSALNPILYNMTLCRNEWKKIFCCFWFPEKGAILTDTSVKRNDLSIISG
T1 sequence (P32121 whole entry partner): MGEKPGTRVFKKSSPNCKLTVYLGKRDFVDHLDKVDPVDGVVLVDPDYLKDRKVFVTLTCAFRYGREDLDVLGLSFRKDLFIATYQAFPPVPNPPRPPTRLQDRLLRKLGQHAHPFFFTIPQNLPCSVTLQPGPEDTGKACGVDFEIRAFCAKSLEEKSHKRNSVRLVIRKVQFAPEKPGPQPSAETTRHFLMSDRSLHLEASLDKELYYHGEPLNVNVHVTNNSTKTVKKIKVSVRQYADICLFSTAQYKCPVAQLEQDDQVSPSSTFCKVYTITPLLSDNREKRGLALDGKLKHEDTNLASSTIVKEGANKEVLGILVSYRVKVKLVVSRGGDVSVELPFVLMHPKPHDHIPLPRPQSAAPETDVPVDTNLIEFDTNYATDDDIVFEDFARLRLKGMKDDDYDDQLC

| Structure (SMILES) | DIO Lowering (−30 to 90) ([1]; 10 mg/kg) [%] | pEC50 [2] | DIO Lowering (−30 to 90) ([1]; 3 mg/kg) [%] |
| --- | --- | --- | --- |
| Cc1ccc(C2=C(COc3ccc(CCC(=O)O)c(F)c3F)CCCC2)cc1F [Compound 494, 3-[2,3-difluoro-4-[[2-(3-fluoro-4-methyl-phenyl)cyclohexen-1-yl]methoxy]phenyl]Propanoic Acid] | −28 |  |  |
| Cc1ccc(C2=C(COc3ccc(CCC(=O)O)c(C)c3C)CCC2)cc1F [Compound 80, 3-(4-((2-(3-fluoro-4-methylphenyl)cyclopent-1-en-1-yl)methoxy)-2,3-dimethylphenyl)Propanoic Acid] | −60 | 7.14 | −33 |
| Cc1ccc(C2=C(COc3ccc(CCC(=O)O)c(C)c3C)CCC2)cc1 [Compound 52, 3-[2,3-dimethyl-4-[[2-(p-tolyl)cyclopenten-1-yl]methoxy]phenyl]Propanoic Acid] | −86 |  |  |
| Cc1c(CCC(=O)O)ccc(OCC2=C(c3ccc(Cl)cc3)CC(F)(F)C2)c1C [Compound 137, 3-[4-[[2-(4-chlorophenyl)-4,4-difluoro-cyclopenten-1-yl]methoxy]-2,3-dimethyl-phenyl]Propanoic Acid] | −56 | 7.37 |  |
| Cc1c(CCC(=O)O)ccc(OCC2=C(c3ccc(Cl)cc3)CCCC2)c1C [Compound 474, 3-[4-[[2-(4-chlorophenyl)cyclohexen-1-yl]methoxy]-2,3-dimethyl-phenyl]Propanoic Acid] |  | 6.45 |  |
| Cc1ccc(C2=C(COc3ccc(CCC(=O)O)c(F)c3F)CCC2)cc1 [Compound 94, 3-(2,3-difluoro-4-((2-(p-tolyl)cyclopent-1-en-1-yl)methoxy)phenyl)Propanoic Acid] | −11 |  |  |
| Cc1c(CCC(=O)O)ccc(OCC2=C(c3ccc(Cl)cc3)CCC(F)(F)C2)c1C [Compound 468, 3-[4-[[2-(4-chlorophenyl)-5,5-difluoro-cyclohexen-1-yl]methoxy]-2,3-dimethyl-phenyl]Propanoic Acid] | −85 | 6.77 |  |
